Experimental data as given in BindingDB's records for doi:10.1021/jm980260f (Sapienza University of Rome, 1999).
pIC50: −log10 of the molar value.

Target: T1, Gag-Pol polyprotein [588-1027]/[588-1147] (Human immunodeficiency virus 1, UniProt P04585)
T1 construct: 588-1027; 588-1147
Assay: HIV-1 RT Assay
Details: pH 7.8; 37 °C

**Q.** How did the pIC50 turn out when `CCC(C)Sc1nc(O)cc(Cc2c(Cl)cccc2Cl)n1` (stereo unspecified) [2-(butan-2-ylsulfanyl)-6-[(2,6-dichlorophenyl)methyl]-3,4-dihydropyrimidin-4-one] was run?
**A.** The pIC50 was 7.00.
